Results: US10842774B2, “Inhibited expression of PD-L1 and enhanced expression of PD-1” (IN Ingredients, Inc., priority 2017, dated 2020)

Key:
PD-1 [1] = experiment: Immunofluorescence densitometry of PDCD-1 (PD-1) expression in human macrophage-like THP-1 cells; assay type: cell-based; details: 20 μg/ml, 24 hours at 37° C., compared to controls
PD-L1 [2] = experiment: Immunofluorescence densitometry of PD-L1 expression in rat C6 glioma cells; assay type: cell-based; details: for percent inhibition of PD-L1 expression: 24 h, compared to controls; for effect on PD-L1 expression (in words): all concentrations tested
Procedure: (§1) Immunofluorescence studies were utilized to explore the effects of an active composition including Type-A polymers on PD-L1 proteins. Purified cinnamtannin B1 and cinnamtannin D1 are obtained from Planta Analytica (New Milford, Conn.). A water extract of cinnamon with at least 3% by weight type-A polymers was obtained from IN Ingredients sold as CINNULIN PF. Each dried material was solvated in DMSO and stored at −20° C. until use. The antibodies (anti-PD-L1) were all obtained from Santa Cruz Biotech. All other reagents used were of the highest grade available in commercial products.
(§2) C6 glioma cells (CCL-107) were purchased from American Type Culture Collection (ATCC; Manassas, Va.). Cell cultures were grown in F-12 K medium (Gibco/Invitrogen) supplemented with 10% horse serum and 2% fetal bovine serum and maintained in a humidified atmosphere containing 5% CO2 and 95% air at 37° C. Cultures were grown to 85% confluency in 75 mm flasks, and cells were subcultured by trypsinization of subconfluent cultures using 0.05% trypsin with EDTA. C6 glioma cells were seeded at a density of 0.5×10^6 cells per 35 mm dish, and cultured for two days. Cells were grown to confluence during the experimental period. Three studies were performed: 1) no other treatment of the cells; 2) treatment with LPS (10 μg/mL); and 3) treatment with TNF-α (10 ng/mL). In some studies, cells were incubated in fresh F-12K medium supplemented with either cinnamtannin D1 (at a concentration of 0 μg/ml, 5 μg/ml, 10 μg/ml, 20 μg/ml, 25 μg/ml, or 50 μg/ml) or cinnamtannin B1 (at a concentration of 0 μg/ml, 5 μg/ml, 10 μg/ml, 20 μg/ml, 25 μg/ml, or 50 μg/ml) for 24 h at 37° C. In certain treatment with LPS studies, the cells were incubated in fresh F-12 K medium supplemented with 10 μg/mL LPS or incubated in fresh F-12 K medium supplemented with 10 μg/mL LPS and cinnamtannin D1 at a concentration 10 μg/ml or 50 μg/ml (5 μg/ml and 25 μg/ml were not tested) for 24 h at 37° C. In certain treatment with TNF-α studies, the cells were incubated in fresh FK-12 medium supplemented with 10 ng/mL TNF-α and cinnamtannin D1 at a concentration 10 μg/ml, 20 μg/ml or 50 μg/ml (5 μg/ml was not tested) for 24 h at 37° C.
(§3) Cells were rinsed with ice-cold PBS and fixed with 4% paraformaldehyde for 10 min at room temperature, followed by permeabilization with 0.3% Triton x-100 for 10 min. After being washed with PBS three times, cells were incubated for 1 h in PBS containing 10% normal goat serum blocking solution. The cells were subjected to immunofluorescence staining with the specific antibodies (Rat C6 glioma cells studied for PD-L1 (Santa Cruz Biotech); human macrophage-like THP-1 cells analyzed for PD-1 (Santa Cruz Biotech)) overnight at 4° C. The cells were then washed with cold PBS three times for 3 min each, and incubated with Alexa-labeled secondary antibodies (Invitrogen) at room temperature for 1 h. The cells were examined by fluorescence microscopy (a Nikon TE2000-S microscope, Nikon, Tokyo, Japan). For cell counts, five to ten random fields with approximately similar density of cells in each field were selected for analysis in each plate. Fluorescence intensities (with pixel values exceeding five times the standard deviation of the background) from these images were semi-quantitatively analyzed by densitometry (ImageJ software, NIH Image).

PD-1 [3] = experiment: Immunofluorescence densitometry of PDCD-1 (PD-1) expression in human macrophage-like THP-1 cells; assay type: cell-based; details: for percent increase of PDCD-1 expression: 24 hours at 37° C., compared to controls; for effect on PDCD-1 expression (in words): all concentrations tested, relative to control
Procedure: In the present study, human macrophage-like THP-1 cells were used to determine the effects of active agents.
Immunofluorescence studies were utilized to explore the effects of an active composition including Type-A polymers on PD-L1 and PD-1 proteins. Doubly linked procyanidin type-A polymers (3% by weight) in a dried extract of bark from C. burmanni was prepared as described (Anderson et al., J. Agric. Food Chem. 2004; 52:65-70), or provided by IN Ingredients Inc. (formerly Integrity Nutraceuticals, Columbia, Tenn., USA) as CINNULIN PF. The dried extract composition was solvated in DMSO and stored at −20° C. until use. The antibodies (anti-PD-L1, anti-PD-1) were all obtained from Santa Cruz Biotech. All other reagents used were of the highest grade available in commercial products.
(§4) Human monocytic THP-1 cells were purchased from ATCC, Manassas, Va. and were maintained in RPMI culture medium supplemented with 10% heat inactivated fetal bovine serum, 10 mM Hepes, 0.1 mM MEM non-essential amino acids, 1 mM sodium pyruvate, and […] penicillin/streptomycin in an atmosphere containing 5% CO2 and 95% air at 37° C. THP-1 monocytes were differentiated in macrophages by 48 hour incubation with phorbol 12-myristate 13-acetate (PMA, Sigma, P8139) in RPMI media at a concentration of 10 ng/mL. Cells were incubated with or without the treatment compounds at dosages indicated below at 37° C. for 24 hours. In certain treatment with LPS studies, the cells were incubated in fresh F-12 K medium supplemented with 10 μg/mL LPS and the type-A polymers at a concentration (from 3% extract) of 0 μg/ml, 5 μg/ml, 10 μg/ml, 25 μg/ml, or 50 μg/ml for 24 h at 37° C. In other treatment with LPS studies, the cells were incubated in fresh F-12 K medium supplemented with 10 μg/mL LPS and cinnamtannin D-1 at a concentration 2.5 μg/ml, 5 μg/ml, 10 μg/ml or 25 μg/ml for 24 h at 37° C.
as §3, with “(human” for “(Rat C6 glioma cells studied for PD-L1 (Santa Cruz Biotech); human”

PD-L1 [4] = experiment: TNF-α-induced overexpression of PD-L1 in rat C6 glioma cells (immunofluorescence densitometry); assay type: cell-based; details: TNF-α 10 ng/ml; for percent inhibition of TNF-α-induced overexpression of PD-L1: 24 h, rat C6 glioma cells
Procedure: as §1
as §2, with “In certain treatment with TNF-α studies, the cells were incubated in fresh FK-12 medium supplemented with 10 ng/mL TNF-α and cinnamtannin D1 at a concentration 10 μg/ml, 20 μg/ml or 50 μg/ml (5 μg/ml was not tested) for 24 h at 37° C.” left out
(§5) Cells were rinsed with ice-cold PBS and fixed with 4% paraformaldehyde for 10 min at room temperature, followed by permeabilization with 0.3% Triton x-100 for 10 min. […] The cells were subjected to immunofluorescence staining with the specific antibodies (Rat C6 glioma cells studied for PD-L1 (Santa Cruz Biotech); human macrophage-like THP-1 cells analyzed for PD-1 (Santa Cruz Biotech)) overnight at 4° C. […] The cells were examined by fluorescence microscopy (a Nikon TE2000-S microscope, Nikon, Tokyo, Japan). […] Fluorescence intensities (with pixel values exceeding five times the standard deviation of the background) from these images were semi-quantitatively analyzed by densitometry (ImageJ software, NIH Image).

PD-L1 [5] = experiment: LPS-induced overexpression of PD-L1 in rat C6 glioma cells (immunofluorescence densitometry); assay type: cell-based; details: LPS 10 μg/ml; for percent inhibition of LPS-induced overexpression of PD-L1: 24 h, rat C6 glioma cells
Procedure: as §1
C6 glioma cells (CCL-107) were purchased from American Type Culture Collection (ATCC; Manassas, Va.). Cell cultures were grown in F-12 K medium (Gibco/Invitrogen) supplemented with 10% horse serum and 2% fetal bovine serum and maintained in a humidified atmosphere containing 5% CO2 and 95% air at 37° C. Cultures were grown to 85% confluency in 75 mm flasks, and cells were subcultured by trypsinization of subconfluent cultures using 0.05% trypsin with EDTA. C6 glioma cells were seeded at a density of 0.5×10^6 cells per 35 mm dish, and cultured for two days. Cells were grown to confluence during the experimental period. Three studies were performed: 1) no other treatment of the cells; 2) treatment with LPS (10 μg/mL); and 3) treatment with TNF-α (10 ng/mL). […]
as §5

PD-1 [6] = experiment: Immunofluorescence densitometry of LPS-induced PDCD-1 down expression in human macrophage-like THP-1 cells; assay type: cell-based; details: LPS 10 μg/ml; for percent inhibition of LPS-induced PDCD-1 down expression: 24 h
Procedure: as §4
as §3, with “(human” for “(Rat C6 glioma cells studied for PD-L1 (Santa Cruz Biotech); human”

PD-L1 [7] = details: treatment for metastatic melanoma (Laubli et al. 2015); cited from earlier work

Molecule: Oc1cc(O)c2c(c1)O[C@@]1(c3ccc(O)c(O)c3)Oc3cc(O)c4c(c3[C@@H]2C1O)OC(c1ccc(O)c(O)c1)[C@H](O)C4c1c(O)cc(O)c2c1O[C@H](c1ccc(O)c(O)c1)[C@H](O)C2 (some centres unmarked) [cinnamtannin B-1, cinnamtannin B1]
- percent increase of PDCD-1 expression (PD-1 [1]): 62%
- percent inhibition of PD-L1 expression (PD-L1 [2]; 5 μg/ml): 35.7%
- percent inhibition of PD-L1 expression (PD-L1 [2]; 10 μg/ml): 60.8%
- percent inhibition of PD-L1 expression (PD-L1 [2]; 25 μg/ml): 54.9%
- percent inhibition of PD-L1 expression (PD-L1 [2]; 50 μg/ml): 41.9%
- effect on PD-L1 expression (in words) (PD-L1 [2]): significantly inhibited
- percent increase of PDCD-1 expression (PD-1 [3]; 2.5 μg/ml): 21%
- percent increase of PDCD-1 expression (PD-1 [3]; 5 μg/ml): 42%
- percent increase of PDCD-1 expression (PD-1 [3]; 10 μg/ml): 83%
- effect on PDCD-1 expression (in words) (PD-1 [3]): significantly enhanced

Molecule: Oc1cc(O)c2c(c1)O[C@@]1(c3ccc(O)c(O)c3)Oc3cc(O)c4c(c3[C@@H]2[C@H]1O)O[C@H](c1ccc(O)c(O)c1)[C@H](O)[C@H]4c1c(O)cc(O)c2c1O[C@H](c1ccc(O)c(O)c1)[C@@H](O)C2 [cinnamtannin D-1, (2R,3R,4S,8S,14R, 15R)-2,8-bis(3,4-dihydroxyphenyl)-4-[(2R,3S)-2-(3,4-dihydroxyphenyl)-3,5,7-trihydroxy-3,4-dihydro-2H-1-benzopyran-8-yl]-3,4-dihydro-2H,8H,14H-8,14-methano-1,7,9-trioxabenzo[6,7]cycloocta[1,2-a]naphthalene-3,5,11,13,15-pentol]
- percent inhibition of TNF-α-induced overexpression of PD-L1 (PD-L1 [4]; 10 μg/ml): 32.0%
- percent inhibition of TNF-α-induced overexpression of PD-L1 (PD-L1 [4]; 20 μg/ml): 42.2%
- percent inhibition of TNF-α-induced overexpression of PD-L1 (PD-L1 [4]; 50 μg/ml): 43.9%
- effect on TNF-α-induced overexpression of PD-L1 (in words) (PD-L1 [4]; all concentrations tested (10, 20, 50 μg/ml)): significantly inhibited
- percent increase of PDCD-1 expression (PD-1 [1]): 71%
- percent inhibition of PD-L1 expression (PD-L1 [2]; 5 μg/ml): 39.9%
- percent inhibition of PD-L1 expression (PD-L1 [2]; 10 μg/ml): 66.8%
- percent inhibition of PD-L1 expression (PD-L1 [2]; 25 μg/ml): 58.1%
- percent inhibition of PD-L1 expression (PD-L1 [2]; 50 μg/ml): 43.6%
- effect on PD-L1 expression (in words) (PD-L1 [2]): significantly inhibited
- percent increase of PDCD-1 expression (PD-1 [3]; 2.5 μg/ml): 18%
- percent increase of PDCD-1 expression (PD-1 [3]; 5 μg/ml): 45%
- percent increase of PDCD-1 expression (PD-1 [3]; 10 μg/ml): 87%
- effect on PDCD-1 expression (in words) (PD-1 [3]): significantly enhanced
- percent inhibition of LPS-induced overexpression of PD-L1 (PD-L1 [5]; 10 μg/ml): 48.9%
- percent inhibition of LPS-induced overexpression of PD-L1 (PD-L1 [5]; 50 μg/ml): 53.0%
- effect on LPS-induced overexpression of PD-L1 (in words) (PD-L1 [5]; all concentrations tested): significantly inhibited
- percent inhibition of LPS-induced PDCD-1 down expression (PD-1 [6]; 2.5 μg/ml): 42%
- percent inhibition of LPS-induced PDCD-1 down expression (PD-1 [6]; 5 μg/ml): 98%
- percent inhibition of LPS-induced PDCD-1 down expression (PD-1 [6]; 10 μg/ml): 81%
- percent inhibition of LPS-induced PDCD-1 down expression (PD-1 [6]; 25 μg/ml): 48%
- effect on LPS-induced PD-1 down-regulation (in words) (PD-1 [6]; all concentrations tested): significantly improved

Molecule: O=C(O)c1cc(O)c(O)c(O)c1 [garlic acid]
- percent increase of PDCD-1 expression (PD-1 [1]): 71%
- percent increase of PDCD-1 expression (PD-1 [3]; 10 μg/ml): 47%
- percent increase of PDCD-1 expression (PD-1 [3]; 50 μg/ml): 52%
- effect on PDCD-1 expression (in words) (PD-1 [3]): significantly enhanced

Molecule: O=c1c(O)c(-c2ccc(O)c(O)c2)oc2cc(O)cc(O)c12 [quercetin]
- percent increase of PDCD-1 expression (PD-1 [1]): 78%
- percent increase of PDCD-1 expression (PD-1 [3]; 10 μg/ml): 33%
- percent increase of PDCD-1 expression (PD-1 [3]; 50 μg/ml): 57%
- effect on PDCD-1 expression (in words) (PD-1 [3]): significantly enhanced

Molecule: C[C@@H]1O[C@@H](OC[C@H]2O[C@@H](Oc3c(-c4ccc(O)c(O)c4)oc4cc(O)cc(O)c4c3=O)[C@H](O)[C@@H](O)[C@@H]2O)[C@H](O)[C@H](O)[C@H]1O [rutin]
- percent increase of PDCD-1 expression (PD-1 [1]): 48%
- percent increase of PDCD-1 expression (PD-1 [3]; 10 μg/ml): 17%
- percent increase of PDCD-1 expression (PD-1 [3]; 50 μg/ml): 43%

Molecule: pembrolizumab: antibody therapeutic cited for targeted inhibition of PD-L1 with cardiac side effect
- cardiac side effect associated with treatment (PD-L1 [7]): acute heart failure due to autoimmune myocarditis
